Reference: patent US12065443B2, “Compounds and pharmaceutical compositions thereof for the treatment of diseases” (priority 2017, dated 2024)
Like-named read-outs stand apart in the source and are kept apart here.

How the values were obtained:
[1] = target: T1, SIK1 (Homo sapiens, UniProt P57059); assay: biochemical; details: 33P radioactive SIK kinase assay, AMARA peptide, 10 μM ATP; read-out: SIK1 IC50
T1 construct: purchased Carna Biosciences 02-131
In short: (§1)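 AMARA peptide phosphorylation by SIK1–3 is quantified through ^33P uptake from a labeled/unlabeled ATP blend. Staurosporine at 10 μM final defines full inhibition, 1% DMSO the uninhibited signal. Quench uses phosphoric acid; counting follows filter capture.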

[2] = target: T2, SIK2 (Homo sapiens, UniProt Q9H0K1); assay: biochemical; details: 33P radioactive SIK kinase assay, AMARA peptide, 10 μM ATP
T2 construct: purchased ThermoFisher Scientific PV4792
T2 sequence (Q9H0K1 whole entry): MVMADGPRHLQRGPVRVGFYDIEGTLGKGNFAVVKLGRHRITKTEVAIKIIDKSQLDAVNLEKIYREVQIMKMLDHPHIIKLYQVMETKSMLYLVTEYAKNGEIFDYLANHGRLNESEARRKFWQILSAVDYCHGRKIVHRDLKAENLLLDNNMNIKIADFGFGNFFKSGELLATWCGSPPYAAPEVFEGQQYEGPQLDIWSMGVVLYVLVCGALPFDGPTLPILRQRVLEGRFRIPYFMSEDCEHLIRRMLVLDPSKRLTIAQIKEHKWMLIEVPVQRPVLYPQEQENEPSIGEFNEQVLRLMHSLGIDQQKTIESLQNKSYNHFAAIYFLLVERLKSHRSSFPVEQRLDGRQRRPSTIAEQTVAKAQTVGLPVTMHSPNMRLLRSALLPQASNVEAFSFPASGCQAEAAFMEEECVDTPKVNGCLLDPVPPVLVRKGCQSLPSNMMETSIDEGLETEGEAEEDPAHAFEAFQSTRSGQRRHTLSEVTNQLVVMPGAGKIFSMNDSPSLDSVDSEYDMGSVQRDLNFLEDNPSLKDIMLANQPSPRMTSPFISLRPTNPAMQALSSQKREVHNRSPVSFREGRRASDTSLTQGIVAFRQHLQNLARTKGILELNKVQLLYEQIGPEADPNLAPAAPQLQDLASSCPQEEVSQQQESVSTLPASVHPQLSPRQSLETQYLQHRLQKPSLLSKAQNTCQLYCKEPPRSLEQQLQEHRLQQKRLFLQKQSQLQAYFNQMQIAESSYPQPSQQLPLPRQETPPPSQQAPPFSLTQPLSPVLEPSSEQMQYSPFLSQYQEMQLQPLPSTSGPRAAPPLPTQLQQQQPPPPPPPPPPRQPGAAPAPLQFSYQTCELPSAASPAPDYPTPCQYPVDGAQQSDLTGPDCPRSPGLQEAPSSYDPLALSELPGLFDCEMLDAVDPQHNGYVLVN
In short: as §1

[3] = target: T3, SIK3 (Homo sapiens, UniProt Q9Y2K2); assay: biochemical
T3 construct: purchased SignalChem S12-11G-100
T3 sequence (Q9Y2K2 whole entry): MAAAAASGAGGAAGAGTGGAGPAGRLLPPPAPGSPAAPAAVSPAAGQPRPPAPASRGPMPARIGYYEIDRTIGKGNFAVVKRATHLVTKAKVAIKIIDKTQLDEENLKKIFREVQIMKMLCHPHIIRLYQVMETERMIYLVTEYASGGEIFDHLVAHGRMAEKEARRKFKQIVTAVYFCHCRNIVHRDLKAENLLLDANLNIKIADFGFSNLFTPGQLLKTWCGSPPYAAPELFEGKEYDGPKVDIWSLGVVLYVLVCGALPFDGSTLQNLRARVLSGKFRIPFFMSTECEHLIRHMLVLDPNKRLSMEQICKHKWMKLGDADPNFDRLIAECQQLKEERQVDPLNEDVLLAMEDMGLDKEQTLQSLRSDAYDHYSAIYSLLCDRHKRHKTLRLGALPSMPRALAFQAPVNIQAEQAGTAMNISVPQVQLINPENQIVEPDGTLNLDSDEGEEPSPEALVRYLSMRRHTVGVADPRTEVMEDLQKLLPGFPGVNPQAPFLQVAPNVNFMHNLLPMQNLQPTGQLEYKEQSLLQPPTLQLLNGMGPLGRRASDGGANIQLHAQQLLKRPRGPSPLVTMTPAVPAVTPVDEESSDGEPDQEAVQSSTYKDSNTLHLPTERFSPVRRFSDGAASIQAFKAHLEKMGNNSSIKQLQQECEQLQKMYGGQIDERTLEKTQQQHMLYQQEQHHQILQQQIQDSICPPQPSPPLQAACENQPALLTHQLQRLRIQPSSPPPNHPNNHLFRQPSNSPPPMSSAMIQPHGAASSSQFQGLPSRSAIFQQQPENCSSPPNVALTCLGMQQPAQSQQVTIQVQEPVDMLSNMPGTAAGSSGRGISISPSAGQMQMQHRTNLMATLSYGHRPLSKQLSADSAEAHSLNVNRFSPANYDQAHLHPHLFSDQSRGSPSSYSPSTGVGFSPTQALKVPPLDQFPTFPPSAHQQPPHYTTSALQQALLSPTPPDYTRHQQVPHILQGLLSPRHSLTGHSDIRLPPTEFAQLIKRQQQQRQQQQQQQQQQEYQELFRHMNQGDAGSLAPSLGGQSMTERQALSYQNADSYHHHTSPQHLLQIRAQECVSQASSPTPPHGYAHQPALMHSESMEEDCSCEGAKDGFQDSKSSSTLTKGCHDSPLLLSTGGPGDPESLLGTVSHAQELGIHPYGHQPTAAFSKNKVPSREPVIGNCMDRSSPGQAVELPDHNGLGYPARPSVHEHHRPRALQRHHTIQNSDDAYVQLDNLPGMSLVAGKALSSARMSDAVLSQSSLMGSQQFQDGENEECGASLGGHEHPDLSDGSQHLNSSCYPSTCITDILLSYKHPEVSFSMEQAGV
In short: as §1

[4] = test system: LPS triggered IL-10 secretion in monocyte-derived macrophages (MdM); assay: MdM assay: LPS-triggered IL-10 (ELISA); type: cell-based, human; details: maximal fold change vs LPS only, median across assays
In short: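 Readout is IL-10FCmax, the median across at least two runs of the highest fold change over LPS-only, from ELISA absorbance at 450 nm of 2 h supernatants. Macrophages came from day-10 cultures of human CD14+ monocytes, were given compound for 1 h at 37° C in 0.2% DMSO, then 200 ng/mL LPS.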

[5] = test system: LPS-induced TNFα secretion in monocyte-derived macrophages (MdM); assay: MdM assay: LPS-triggered TNFα (ELISA); type: cell-based, human; details: Homo sapiens, Macrophage, LPS-triggered TNFα inhibition
In short: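 TNFα ELISA read on supernatants harvested 20 h after LPS (final 200 ng/mL) stimulation. Cells were day-10 macrophages derived from human blood CD14+ monocytes, exposed to 3-fold compound dilutions for 1 h at 37 °C beforehand, with DMSO held at 0.2%.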

[6] = test system: LPS driven TNFα secretion in Peripheral Blood Mononuclear Cells (PBMC); assay: cells; type: cell-based; details: Homo sapiens, LPS 1 ng/mL, supernatant after 18-20 h, ELISA
Experimental: This assay measures the inhibition of LPS driven TNFα secretion by a test compound in Peripheral Blood Mononuclear Cells (PBMC), which in turn correlates with SIK inhibition.
PBMCs are isolated from human blood samples (buffy coats). The buffy coat is aseptically transferred into a 50 mL Falcon™ tube, and diluted 1/2 in Phosphate Buffered Saline (PBS). […] The tubes are centrifuged for 35 min at 400× g in temperature controlled centrifuge, without brake, at 25° C. PBMCs are aspirated from the white interface layer between sample and Lymphoprep. PBMCs are washed five times in PBS. […] The PBMCs are finally seeded at 400,000 PBMC/160 μL/96-well.
A compound dilution plate is made in 100% DMSO by 3-fold dilution of 10 mM stock solution of test compound. An intermediate dilution plate (10× final concentration) is made by diluting the compound dilution plate 50-fold in RPMI medium.
20 μL of the 10× final concentration compound is added to the cells and incubated for 1 hour at 37° C. before addition of trigger. No trigger conditions/trigger conditions are spiked with equal final DMSO concentrations of 0.2% DMSO. 20 μL of 10×LPS (final concentration 1 ng/mL) solution are added to all wells except for the ‘no trigger wells’ where 20 μL medium is added. Supernatant is collected after 18-20 h for IL-10 and TNFα determination using ELISA.
The plate is then washed once with PBST (PBS+0.05% Tween20) and once with PBS followed by the addition of 100 μL of blocking buffer (1% Bovine Serum Albumin (BSA)-5% Sucrose) and plates are sealed and incubated for at least 4 h at RT. After washing the plate once with PBST and once with PBS, 40 μL of standard or sample are added (TNFα standard curve is prepared using a 1/2 serial dilution starting from 16000 pg/mL; dilutions are made in dilution buffer (PBS+1% BSA)). Plates are washed twice with PBST, and once with PBS, after which 35 μL of the detection antibody is added (final concentration 0.25 μg/mL diluted in dilution buffer) and plates are incubated for at least 2 h at RT. Plates are washed twice with PBST, and once with PBS, where after 35 μL of Strep-HRP conjugate (0.5 μg/mL final concentration diluted in dilution buffer) is added. Plates are incubated in the dark, at RT for at least 45 min but no longer than 1 hour. Plates are washed twice with PBST, and once with PBS. Thereafter, 50 μL of luminol substrate is added to each well (prepared according to manufacturer's instructions), and incubated for 5 min at RT protected from light.
To measure the inhibition of LPS induced TNFα, percentage inhibition (PIN) values are calculated for all concentrations tested, compared to controls.
PIN values are plotted in concentration-response and EC50 values are derived using GraphPad Prism Software, applying 4-parameter nonlinear regression (sigmoidal) curve fitting.

[7] = target: T1, SIK1; assay: biochemical; details: ADP-Glo SIK kinase assay
In short: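 Wells with 1% DMSO or 10 μM staurosporine (final) define the control window. The kinase reaction with substrate and ATP runs 120 min at RT, followed by ADP-Glo detection: ATP depletion (40 min) and ADP-derived luminescence (30 min).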

[8] = target: T2, SIK2; assay: biochemical; details: ADP-Glo SIK kinase assay
In short: (§2)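 Kinase reactions (enzyme-substrate mix plus ATP) ran 120 min at room temperature for each of SIK3 and SIK2. Signal came from ADP-Glo: unconsumed ATP removed (40 min), ADP reconverted and detected by luciferase/luciferin (30 min), with luminescence tracking kinase activity. 10 μM staurosporine and 1% DMSO (final) served as controls.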

[9] = target: T3, SIK3; assay: biochemical; details: ADP-Glo SIK kinase assay
In short: as §2

T1 sequence (P57059 whole entry): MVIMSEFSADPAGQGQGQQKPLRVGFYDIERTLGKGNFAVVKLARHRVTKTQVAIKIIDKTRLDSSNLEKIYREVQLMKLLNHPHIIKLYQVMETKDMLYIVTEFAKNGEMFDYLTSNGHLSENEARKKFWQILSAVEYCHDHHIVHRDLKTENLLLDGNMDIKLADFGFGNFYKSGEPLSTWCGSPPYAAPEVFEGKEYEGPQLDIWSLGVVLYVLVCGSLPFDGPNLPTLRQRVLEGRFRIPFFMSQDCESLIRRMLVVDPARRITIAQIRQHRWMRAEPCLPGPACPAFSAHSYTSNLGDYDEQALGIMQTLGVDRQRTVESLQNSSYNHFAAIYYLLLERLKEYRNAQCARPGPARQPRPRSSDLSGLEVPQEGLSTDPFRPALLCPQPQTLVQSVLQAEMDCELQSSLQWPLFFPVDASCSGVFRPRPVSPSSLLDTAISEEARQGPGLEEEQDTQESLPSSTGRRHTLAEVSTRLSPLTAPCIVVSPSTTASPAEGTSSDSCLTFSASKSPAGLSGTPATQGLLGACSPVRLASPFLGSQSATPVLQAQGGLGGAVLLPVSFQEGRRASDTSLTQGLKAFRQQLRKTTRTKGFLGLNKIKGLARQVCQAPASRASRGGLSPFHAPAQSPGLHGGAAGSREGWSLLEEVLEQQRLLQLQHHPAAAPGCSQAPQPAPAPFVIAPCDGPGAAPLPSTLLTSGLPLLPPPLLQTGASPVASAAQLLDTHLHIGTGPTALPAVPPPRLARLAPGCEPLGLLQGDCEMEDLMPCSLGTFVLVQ

IC50 [1] [nM] | IC50 [2] [nM] | IC50 [3] [nM] | EC50 [5] [nM] | IC50 [7] [nM] | IC50 [8] [nM] | IC50 [9] [nM] | SMILES | IL-10 FCmax median [4] | EC50 [6] [nM]
10 to 100 | 0.01 to 10 | 0.01 to 10 | 0.1 to 100 |  |  |  | COc1cc(-n2cnc3cc(-c4cnn(C)c4)ccc32)cc(OC)c1C(=O)NCC(F)(F)F [Cpd 25, 2,6-dimethoxy-4-[5-(1-methylpyrazol-4-yl)benzimidazol-1-yl]-N-(2,2,2-trifluoroethyl)benzamide] | ++ (>1.5-4.5) | 0.1 to 100
0.01 to 10 | 0.01 to 10 | 0.01 to 10 | 0.1 to 100 |  |  |  | COc1cc(-c2cnc3cc(-c4cnn(C)c4)ccn23)cc(OC(F)F)c1C(=O)NC1CC1 [Cpd 124, N-cyclopropyl-2-(difluoromethoxy)-6-methoxy-4-[7-(1-methylpyrazol-4-yl)imidazo[1,2-a]pyridin-3-yl]benzamide] | ++ (>1.5-4.5) | 0.1 to 100
0.01 to 10 | 0.01 to 10 | 0.01 to 10 | 0.1 to 100 |  |  |  | COc1cc(-n2cnc3cc(-c4cnn(CCN5CCOCC5)c4)ccc32)cc(OC(F)F)c1C(=O)NC1CC1 [compound 56, N-cyclopropyl-2-(difluoromethoxy)-6-methoxy-4-[5-[1-(2-morpholinoethyl)pyrazol-4-yl]benzimidazol-1-yl]benzamide] | ++ (>1.5-4.5) | 0.1 to 100
10 to 100 | 0.01 to 10 | 0.01 to 10 | 100 to 1000 |  |  |  | CCNC(=O)c1c(OC)cc(-n2cnc3cc(-c4cnn(CCN5CCOCC5)c4)ccc32)cc1OC(F)F [compound 57, 2-(difluoromethoxy)-N-ethyl-6-methoxy-4-[5-[1-(2-morpholinoethyl)pyrazol-4-yl]benzimidazol-1-yl]benzamide] | ++ (>1.5-4.5) | 0.1 to 100
10 to 100 | 0.01 to 10 | 0.01 to 10 | 100 to 1000 |  |  |  | COc1cc(-n2cnc3cc(-c4cnn(C)c4)ccc32)cc(OC)c1C(=O)NCC(F)F [compound 78, N-(2,2-difluoroethyl)-2,6-dimethoxy-4-[5-(1-methylpyrazol-4-yl)benzimidazol-1-yl]benzamide] | ++ (>1.5-4.5) | 0.1 to 100
10 to 100 | 0.01 to 10 | 0.01 to 10 | 0.1 to 100 |  |  |  | COCCn1cc(-c2ccc3c(c2)ncn3-c2cc(OC)c(C(=O)NCC(F)(F)F)c(OC)c2)cn1 [compound 84, 2,6-dimethoxy-4-[5-[1-(2-methoxyethyl)pyrazol-4-yl]benzimidazol-1-yl]-N-(2,2,2-trifluoroethyl)benzamide] | ++ (>1.5-4.5) | 0.1 to 100
10 to 100 | 0.01 to 10 | 0.01 to 10 | 0.1 to 100 |  |  |  | COc1cc(-n2cnc3cc(-c4cnn(C5COC5)c4)ccc32)cc(OC)c1C(=O)NCC(F)(F)F [compound 85, 2,6-dimethoxy-4-[5-[1-(oxetan-3-yl)pyrazol-4-yl]benzimidazol-1-yl)-N-(2,2,2-trifluoroethyl)benzamide] | ++ (>1.5-4.5) | 0.1 to 100
10 to 100 | 0.01 to 10 | 0.01 to 10 | 0.1 to 100 |  |  |  | COc1cc(-n2cnc3cc(-c4cnn(C5CC5)c4)ccc32)cc(OC)c1C(=O)NCC(F)(F)F [compound 96, 4-[5-(l-cyclopropylpyrazol-4-yl)benzimidazol-1-yl]-2,6-dimethoxy-N-(2,2,2-trifluoroethyl)benzamide] | ++ (>1.5-4.5) | 0.1 to 100
0.01 to 10 | 0.01 to 10 | 0.01 to 10 | 0.1 to 100 |  |  |  | COc1cc(-c2cnc3cc(-c4cnn(C)c4)ccn23)cc(OC)c1C(=O)NC1CC1 [compound 102, N-cyclopropyl-2,6-dimethoxy-4-[7-(1-methylpyrazol-4-yl)imidazo[1,2-a]pyridin-3-yl]benzamide] | ++ (>1.5-4.5) | 0.1 to 100
0.01 to 10 | 0.01 to 10 | 0.01 to 10 | 0.1 to 100 |  |  |  | COc1cc(-c2cnc3cc(-c4cnn(C)c4)cnn23)cc(OC)c1C(=O)NC1CC1 [compound 112, N-cyclopropyl-2,6-dimethoxy-4-[7-(1-methylpyrazol-4-yl)imidazo[1,2-b]pvridazin-3-yl]benzamide] | + (≤1.5) | 0.1 to 100
0.01 to 10 | 0.01 to 10 | 0.01 to 10 | 0.1 to 100 |  |  |  | CCNC(=O)c1c(OC)cc(-c2cnc3cc(-c4cnn(C)c4)ccn23)cc1OC(F)F [compound 116, 2-(difluoromethoxy)-N-ethyl-6-methoxy-4-[7-(1-methylpyrazol-4-yl)imidazo[1,2-a]pyridin-3-yl]benzamide] | ++ (>1.5-4.5) | 0.1 to 100
0.01 to 10 | 0.01 to 10 | 0.01 to 10 | 0.1 to 100 |  |  |  | COc1cc(-c2cnc3cc(-c4cnn(C)c4)ccn23)cc(OC)c1C(=O)NCC#N [compound 122, N-(cyanomethyl)-2,6-dimethoxy-4-[7-(1-methylpyrazol-4-yl)imidazo[1,2-a]pyridin-3-yl]benzamide] | ++ (>1.5-4.5) | 0.1 to 100
10 to 100 | 0.01 to 10 | 0.01 to 10 | 0.1 to 100 |  |  |  | CCNC(=O)c1c(OC)cc(-c2cnc3cc(-c4cc(C)no4)ccn23)cc1OC(F)F [compound 123, 2-(difluoromethoxy)-N-ethyl-6-methoxy-4-[7-(3-methylisoxazol-5-yl)imidazo[1,2-a]pyridin-3-yl]benzamide] | ++ (>1.5-4.5) | 0.1 to 100
10 to 100 | 10 to 100 | 10 to 100 | 100 to 1000 |  |  |  | COc1cc(-c2cnc3cc(-c4cnn(C)c4)ccn23)cc(OC)c1C(=O)N[C@@H](C)C(F)(F)F [compound 132, 2,6-dimethoxy-4-[7-(1-methylpyrazol-4-yl)imidazo[1,2-a]pyridin-3-yl]-N-[(1S)-2,2,2-trifluoro-1-methyl-ethyl]benzamide] | + (≤1.5) | 100 to 1000
10 to 100 | 10 to 100 | 10 to 100 | 100 to 1000 | 10 to 100 | 0.01 to 10 | 0.01 to 10 | CCN1Cc2cc(-c3cnc4cc(-c5cnn(C)c5)ccn34)cc(OC)c2C1=O [compound 176, 2-ethyl-7-methoxy-5-[7-(1-methylpyrazol-4-yl)imidazo[1,2-a]pyridin-3-yl]isoindolin-1-one] |  | 0.1 to 100
10 to 100 | 10 to 100 | 10 to 100 | 100 to 1000 | 10 to 100 | 0.01 to 10 | 0.01 to 10 | CCNC(=O)c1c(OC)cc(-n2cnc3cc(-c4cnn(C)c4)cnc32)cc1OC(F)F [compound 177, 2-(difluoromethoxy)-N-ethyl-6-methoxy-4-[6-(1-methylpyrazol-4-yl)imidazo[4,5-b]pyridin-3-yl]benzamide] |  | 0.1 to 100
10 to 100 | 0.01 to 10 | 0.01 to 10 | 0.1 to 100 |  |  |  | CCNC(=O)c1c(OC)cc(-c2cnc3cc(-c4cn(C)cn4)ccn23)cc1OC(F)F [compound 178, 2-(difluoromethoxy)-N-ethyl-6-methoxy-4-[7-(1-methylimidazol-4-yl)imidazo[1,2-a]pyridin-3-yl]benzamide] | ++ (>1.5-4.5) | 0.1 to 100
10 to 100 | 0.01 to 10 | 0.01 to 10 | 0.1 to 100 |  |  |  | COc1cc(-c2cnc3cc(-c4cnn(C)c4)ccn23)cc(F)c1C(=O)NCC(F)(F)F [compound 203, 2-fluoro-6-methoxy-4-[7-(1-methylpyrazol-4-yl)imidazo[1,2-a]pyridin-3-yl]-N-(2,2,2-trifluoroethyl)benzamide] | +++ (>4.5) | 0.1 to 100
